We go through 7 compounds from patent publication US10195226B2, “Medicinal carbohydrates for treatment of respiratory conditions” (Australian Biomedical Company Pty Ltd., priority 2009, dated 2019).

Like-named read-outs stand apart in the source and are kept apart here.

One data set deals with mucocilliary transport. To be noted: reference [6]; result in words; cited from earlier work.
In data set [1] the test system is Small Airway Epithelial Cells (SAEC). To be noted: SAEC pretreated with neuraminidase, 24 h, control (treated with neuraminidase) = 100%, mean ± SEM, n = 3.
Data set [2] has as its system Normal Human Bronchial/Tracheal Epithelial Cells (NHBE). To be noted: NHBE pretreated with neuraminidase, 24 h, control (treated with neuraminidase) = 100%, mean ± SEM, n = 3.
The subject of data set [3] is Balb-C mice. Description: Tolerance study on Balb-C mice. The data set is classed as in vivo. The source says:
(§1) Compounds of Formula (1) and/or (2) have been tested for safety by the applicants. For example, Compounds (1) and (2) were used in a tolerance and subchronic toxicity study on Balb-C mice (AEC Approval Code: BAM/B/2005/16).

The subject of the next data set is male Hartley guinea pigs. Briefly: Guinea pig cough model (neuraminidase aerosol, citric acid challenge). The format is in vivo. The settings on record: for Restoration of respiratory tract damages caused by neuraminidase: guinea pig cough model, oral dose of 500 mg/kg/day×3 days, result in words, 500 mg/kg/day. On the procedure:
A guinea pig cough model was also established by the applicants. Compounds (1) and (2) were tested in this model. […] These in vivo results are in line with the in vitro data. Thus, both the efficacy and safety data support compounds of Formula (1) and/or (2) and particularly compounds (1) and (2) may be useful for medicinal applications.
Male guinea pigs were housed in pens and have access to water and food ad libitum. This study was approved by Bio21 Institute Animal Ethics Committee.
Twenty four Conscious male Hartley guinea pigs (500˜550 g) were divided into A, B, C three groups (8 animals for each group), and pretreated with either 5 units/ml solution of neuraminidase (Sigma N2133, lyophilized powder, Type X, 150˜400 units/mg protein) in water (group B and C) or saline alone (Group A) via an aerosol for 5 minutes on day one. Then, on day one, two and three, the guinea pigs were either orally administered with 500 mg/kg of compound (1) (Group C), or water alone (Group A and B). On day four, all the animals were challenged with 0.5M citric acid solution (nebulised, 10 minutes exposure). The cough frequency, times to the 1st, 2nd and third cough, and times to the 1st nose rubs were then recorded over a period of 15 minutes.

In data set [4] the test system is Balb-C mice. Briefly: Subchronic toxicity study on Balb-C mice. The data set is classed as in vivo.
From the text: as §1

For data set [5] the following is noted: mammals, reference [8]; cited from earlier work.
A further data set relates to rabbits. To be noted: pre-treatment with repeated administrations (inhalations), reference [7]; cited from earlier work.
Setting [6] is: guinea pigs, neuraminidase aerosol day one, 500 mg/kg oral on days one to three, 0.5M citric acid challenge day four.

Consider `OC[C@H]1O[C@@H](O[C@H]2[C@H](O)[C@@H](O)C(O)O[C@@H]2CO)[C@H](O)[C@@H](O)[C@H]1O` (stereo partly shown) [lactose, reference compound], for which the “Protection against the impairment of the mucocilliary transport” value with mucocilliary transport was “not”.
Consider `CC(=O)NC1C(O)OC(COC(C)=O)C(OC(C)=O)C1OC(C)=O` (stereo not shown) [Compound (8)], for which the Cell viability in data set [1] (compound 0.003 μg/ml) was 125% ± 8.51; in data set [1] (compound 0.05 μg/ml), 109% ± 1.16; in data set [1] (compound 0.19 μg/ml) it was 115% ± 3.52; in data set [1] (compound 0.77 μg/ml), 103% ± 3.21; in data set [1] (compound 3.1 μg/ml), 109% ± 2.79; in data set [1] (compound 12.5 μg/ml), 104% ± 1.95. Besides, the Cell viability in data set [1] (compound 50 μg/ml) is 91% ± 3.36; in data set [2] (compound 0.003 μg/ml), 129% ± 1.70; in data set [2] (compound 0.012 μg/ml), 118% ± 3.19; in data set [2] (compound 0.05 μg/ml), 93% ± 1.38; in data set [2] (compound 0.19 μg/ml), 96% ± 1.21; in data set [2] (compound 0.77 μg/ml), 133% ± 2.09. Besides, the Cell viability is given as 111% ± 2.44 in data set [2] (compound 3.1 μg/ml), 81% ± 0.60 in data set [2] (compound 12.5 μg/ml) and 42% ± 1.55 in data set [2] (compound 50 μg/ml).
`CC(=O)NC1C(O)OC(CO)C(O)C1O` (stereo not shown) [Compound (9)]: the Cell viability in data set [1] (compound 0.19 μg/ml) was 121% ± 2.42; in data set [1] (compound 0.77 μg/ml), 120% ± 3.14; in data set [1] (compound 3.1 μg/ml), 115% ± 3.17; in data set [1] (compound 12.5 μg/ml), 119% ± 3.04; in data set [1] (compound 50 μg/ml), 122% ± 3.21; in data set [1] (high concentration 78.1 μg/ml) it was 100% ± 2.92. Also, the Cell viability in data set [1] (high concentration 312.5 μg/ml) is 90% ± 3.28; in data set [1] (high concentration 1.25 mg/ml), 96% ± 3.16; in data set [1] (high concentration 5 mg/ml), 83% ± 2.85; in data set [2] (compound 0.19 μg/ml) it was 107% ± 3.41; in data set [2] (compound 0.77 μg/ml) it was 107% ± 1.26; in data set [2] (compound 3.1 μg/ml), 108% ± 3.24. The Cell viability in data set [2] (compound 12.5 μg/ml) is reported as 106% ± 3.49; in data set [2] (compound 50 μg/ml), 106% ± 2.52; in data set [2] (high concentration 78.1 μg/ml) it was 125% ± 3.23; in data set [2] (high concentration 312.5 μg/ml), 95% ± 2.85; in data set [2] (high concentration 1.25 mg/ml) it was 96% ± 2.42; in data set [2] (high concentration 5 mg/ml), 76% ± 2.71.
For the compound `CC(=O)N[C@H]1[C@H]([C@H](O)[C@H](O)CO)OC(O)(C(=O)[O-])C[C@@H]1O.[Na+]` (stereo partly shown) [Compound (2), N-acetylneuraminic acid sodium salt], the Tolerance entry in the data set on Balb-C mice [3] (2 g/Kg intraperitoneal dose) and with Balb-C mice [3] (5 g/Kg oral dose) was “well tolerated” throughout. The “Restoration of respiratory tract damages caused by neuraminidase” value (“Restoration” below) in the data set with male Hartley guinea pigs (sodium salt) is reported as “could restore the respiratory tract damages caused by neuraminidase”.
Consider `CC(=O)N[C@@H]1C(O)O[C@H](CO)[C@@H](O)[C@@H]1O` (stereo partly drawn) [Compound (1), N-acetyl-D-mannosamine], for which, in the data set with Balb-C mice [3] (2 g/Kg intraperitoneal dose), the Tolerance entry is recorded as “well tolerated”. In addition, the Tolerance result in the data set with Balb-C mice [3] (5 g/Kg oral dose) is given as “well tolerated”. For the same compound, in the data set with Balb-C mice [4] (0.5 g/Kg/day×30 days intraperitoneal dose), the Subchronic toxicity result is recorded as “non-toxic”. Further, the Subchronic toxicity result in the data set on Balb-C mice [4] (1 g/Kg/day×30 days oral dose) is reported as “non-toxic”. The “Restoration” value in the data set on male Hartley guinea pigs is recorded as “could restore the respiratory tract damages caused by neuraminidase”. Also, the “Restoration” value in the data set on male Hartley guinea pigs (listed as compound (1)) is recorded as “helped to restore the damages caused by neuraminidase”. In the data set on male Hartley guinea pigs (setting [6]), the “Cough frequency (in 15 minutes)” value came out at 16 ± 2.2, the “Time (second) to the 1st nose rubs” value was 49 ± 6.5 s, the “Time (seconds) to the 1st cough” value was 85 ± 15 s and the “Time (seconds) to the 2nd cough” value came out at 137 ± 31 s. Besides, the “Time (seconds) to the 3rd cough” value with male Hartley guinea pigs (setting [6]) is 220 ± 10 s. The “Metabolism after oral administration” value in data set [5] is “rapidly metabolized into glucose”.
On to `CC(=O)N[C@H]1[C@H]([C@H](O)[C@H](O)CO)OC(O)(C(=O)O)C[C@@H]1O` (stereo partly shown) [N-acetylneuraminic acid], for which the “Protection against the impairment of the mucocilliary transport” value in the data set with mucocilliary transport is listed as “dose-dependently protected”. Moreover, in the data set with rabbits, the “Prevention of inflammatory changes caused by long term exposure of SO2” value is on record as “remarkably prevented the inflammatory changes”.
For `CC(=O)NC1C(OC(C)=O)OC(COC(C)=O)C(OC(C)=O)C1OC(C)=O` (stereo not shown) [Compound (7)], the Cell viability is given as 102% ± 0.62 in data set [1] (compound 0.003 μg/ml); 105% ± 1.83 in data set [1] (compound 0.012 μg/ml); 128% ± 1.98 in data set [1] (compound 0.05 μg/ml); 105% ± 2.01 in data set [1] (compound 0.19 μg/ml); 112% ± 1.29 in data set [1] (compound 0.77 μg/ml); 103% ± 1.14 in data set [1] (compound 3.1 μg/ml). Besides, the Cell viability in data set [1] (compound 12.5 μg/ml) was 134% ± 0.81; in data set [1] (compound 50 μg/ml), 73% ± 2.18; in data set [2] (compound 0.003 μg/ml), 85% ± 2.71; in data set [2] (compound 0.012 μg/ml), 103% ± 4.70; in data set [2] (compound 0.05 μg/ml), 104% ± 5.85; in data set [2] (compound 0.19 μg/ml), 100% ± 0.66. Also, the Cell viability in data set [2] (compound 0.77 μg/ml) is 99% ± 1.93; in data set [2] (compound 3.1 μg/ml), 98% ± 5.65; in data set [2] (compound 12.5 μg/ml), 117% ± 4.12; in data set [2] (compound 50 μg/ml), 54% ± 0.98.
